Measurements taken from PubChem BioAssay (NCI).
Several values for one entry are separate records, joined by “and”; a condition that tells them apart may be missing. Identical values can stand only once.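 Protocol summary: plate cells (96-well), add compound at 5 concentrations, incubate 48 h, interpolate endpoints linearly. GI50: concentration for 50% inhibition of growth. TGI marks complete inhibition of growth.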

Columns and labels:
Assay in all cases: NCI tumour cell line growth inhibition, 48 h
ACHN renal = test system: ACHN renal
HCT-116 colon = test system: HCT-116 colon
HCT-15 colon = test system: HCT-15 colon
MOLT-4 leukemia = test system: MOLT-4 leukemia
OVCAR-3 ovarian = test system: OVCAR-3 ovarian
PC-3 prostate = test system: PC-3 prostate
SF-295 CNS = test system: SF-295 CNS
SK-MEL-28 melanoma = test system: SK-MEL-28 melanoma
UACC-62 melanoma = test system: UACC-62 melanoma
SNB-75 CNS = test system: SNB-75 CNS

SMILES | GI50 (ACHN renal) | TGI (ACHN renal) | GI50 (HCT-116 colon) | TGI (HCT-116 colon) | GI50 (HCT-15 colon) | TGI (HCT-15 colon) | GI50 (MOLT-4 leukemia) | TGI (MOLT-4 leukemia) | GI50 (OVCAR-3 ovarian) | TGI (OVCAR-3 ovarian) | GI50 (PC-3 prostate) | TGI (PC-3 prostate) | GI50 (SF-295 CNS) | GI50 (SK-MEL-28 melanoma) | TGI (SK-MEL-28 melanoma) | TGI (UACC-62 melanoma) | TGI (SF-295 CNS) | TGI (SNB-75 CNS) | GI50 (SNB-75 CNS) | GI50 (UACC-62 melanoma)
O=C(O)CCCc1ccc(N(CCCl)CCCl)cc1 | 4.21 µM | 30.3 µM and 180 µM | 23 µM and 144 µM | 63 µM and 389 µM and 328 µM | 29.6 µM and 117 µM | > 76.3 µM and 307 µM and 239 µM | 0.999 µM | 12.7 µM and 104 µM | 18.1 µM and 133 µM | 56.7 µM and 322 µM and 209 µM | 210 µM | 416 µM and 609 µM | 11.7 µM and 64.6 µM | 21.5 µM | 42.1 µM and 267 µM | 23.1 µM and 106 µM and 202 µM | – | – | – | –
O=C(O)c1cc(S(=O)(=O)N=NC=C2c3ccccc3N(O)c3ccccc32)ccc1O | – | 59.6 µM | – | 27.9 µM | – | 21.2 µM | – | 45.1 µM | – | > 100 µM | – | – | – | – | 30.9 µM | 22 µM | 20.1 µM | 7.77 µM | – | –
O=C1/C(=C/c2ccccc2)CN(C(=O)Oc2ccc(Cl)cc2)C/C1=C\c1ccccc1 | – | 8.86 µM | – | 0.593 µM | – | 2.73 µM | – | 8.63 µM | – | 10.6 µM | – | – | – | – | 4.26 µM | 5.42 µM | 5.79 µM | 12.6 µM | – | –
O=C(N/N=C/c1cccc(O)c1O)N/N=C/c1cccc(O)c1O | – | > 100 µM | – | 39.8 µM | – | > 100 µM | – | 46.8 µM | – | 8.8 µM | – | – | – | – | > 100 µM | > 100 µM | 46.2 µM | 50.4 µM | – | –
Cc1c(C(=O)/C=C/c2cccc3ccccc23)[n+](=O)c2ccccc2n1[O-] | – | 29.4 µM | – | 18.8 µM | – | 27 µM | – | 35.4 µM | – | 22.7 µM | – | – | – | – | 26.6 µM | 23.9 µM | 29.7 µM | 27.2 µM | – | –
C#CC(C)(C)Oc1cc(O)c2c(=O)c3ccccc3n(C)c2c1 | – | > 100 µM | – | > 100 µM | – | > 100 µM | – | > 100 µM | – | > 100 µM | – | – | – | – | > 100 µM | > 100 µM | > 100 µM | > 100 µM | – | –
CC(=O)/C=C/c1cccc(N=S)c1 | – | > 53.3 µM | – | 2.72 µM | – | 31.9 µM | – | > 75.2 µM | – | 48.4 µM | – | – | – | – | 44.6 µM | > 57.2 µM | 54.3 µM | > 91.8 µM | – | –
O=S(=O)(O)C(O)/C=C/c1ccccc1 (stereo not given) | – | > 100 µM | – | > 100 µM | – | > 100 µM | – | > 100 µM | – | > 100 µM | – | – | – | – | > 100 µM | > 100 µM | > 100 µM | > 100 µM | – | –
Cc1cc(C)nc(NS(=O)(=O)c2ccc(NC(=O)c3cccc4c(=O)c5ccccc5[nH]c34)cc2)n1 | – | 49.2 µM | – | 30.7 µM | – | 46.3 µM | – | > 100 µM | – | 37.6 µM | – | – | – | – | 36 µM | 44.5 µM | 43.5 µM | 50 µM | – | –
COc1cc2c(cc1O)[C@H](Cc1ccc(Oc3cc(C[C@H]4c5cc(OC)c(OC)cc5CCN4C)ccc3OC)cc1)NCC2 | – | 23.6 µM | – | 20.9 µM | – | 21.4 µM | – | 25.5 µM | – | 22.4 µM | – | – | – | – | 30.8 µM | 32.1 µM | 24.2 µM | 21.8 µM | – | –
COC(=O)C(CC(=O)c1cc2c(cc1I)OCO2)Cc1cc(OC)c(OC)c(OC)c1I (stereo not given) | – | > 100 µM | – | > 100 µM | – | > 100 µM | – | > 100 µM | – | > 100 µM | – | – | – | – | > 100 µM | > 100 µM | > 100 µM | – | – | –
CC1=C[C@@H]2Cc3occc3C(C)(C)[C@@H]2CC1 | – | 29.4 µM | – | 33.7 µM | – | – | – | 39.4 µM | – | 31.5 µM | – | – | – | – | 49.5 µM | > 10 µM | 34.1 µM | 33.5 µM | – | –
O=c1[nH]c(=O)n(C2CC(O)C(CO)O2)cc1C#Cc1c(F)c(F)c(F)c(F)c1F (stereo not given) | – | > 100 µM | – | > 100 µM | – | > 100 µM | – | > 100 µM | – | > 100 µM | – | – | – | – | > 100 µM | > 100 µM | > 100 µM | > 100 µM | – | –
CN(C)CCNC(=O)c1cccc2nc3c(Cl)cccc3nc12 | – | 30.5 µM | – | 16.1 µM | – | 34.6 µM | – | 10.4 µM | – | > 63.6 µM | – | – | – | – | 15.9 µM | 3.87 µM | > 27.1 µM | 32.2 µM | – | –
Clc1ccc(Cc2nc3cc4ccccc4cc3[nH]2)cc1 | 18.8 µM | 57.7 µM | 5.06 µM | 20.6 µM | 5.33 µM | 26.4 µM | – | – | 14.4 µM | > 100 µM | 7.12 µM | > 100 µM | 3.08 µM | – | – | > 100 µM | 30 µM | > 100 µM | > 100 µM | 73.5 µM
COc1ccc(/C=C(/C(=O)O)c2cc(OC)c(OC)c(OC)c2)cc1 | – | > 100 µM | – | > 100 µM | – | – | – | > 100 µM | – | 64.1 µM | – | – | – | – | > 100 µM | > 100 µM | – | 79 µM | – | –
CCOC(=O)c1c(N)n(-c2ccccc2)c(=S)n(-c2ccccc2)c1=O | – | > 100 µM | – | – | – | > 100 µM | – | > 100 µM | – | > 100 µM | – | – | – | – | > 100 µM | > 100 µM | > 100 µM | > 100 µM | – | –
C[C@]12CCC(=O)C=C1CC[C@@H]1C2CC[C@]2(C)NC(=O)C(C#N)CC12 (stereo not given in full) | – | > 100 µM | – | > 100 µM | – | > 100 µM | – | > 100 µM | – | > 100 µM | – | – | – | – | > 100 µM | > 100 µM | > 100 µM | > 100 µM | – | –
O=C1CC[C@H]2CNC(=O)C[C@H]2C1 | – | – | – | > 100 µM | – | > 100 µM | – | > 100 µM | – | > 100 µM | – | – | – | – | > 100 µM | > 100 µM | > 100 µM | > 100 µM | – | –
CC1=CCCC(OC(N)=O)C1 (stereo not given) | – | > 100 µM | – | > 100 µM | – | > 100 µM | – | > 100 µM | – | > 100 µM | – | – | – | – | – | > 100 µM | > 100 µM | > 100 µM | – | –
COc1ccc(N=Cc2cc(OC)c(OC)c(OC)c2)cc1 | – | > 100 µM | – | > 100 µM | – | > 100 µM | – | > 100 µM | > 100 µM | > 100 µM | – | – | – | – | > 100 µM | > 100 µM | – | > 100 µM | – | –
C1CN2N3CCCC23C1 (stereo not given) | – | > 100 µM | – | > 100 µM | – | > 100 µM | – | > 100 µM | – | > 100 µM | – | – | – | – | > 100 µM | > 100 µM | > 100 µM | > 100 µM | – | –
